Consider 13 substances from patent publication US20040171795A1, “Novel peptides” (priority 2000, published 2004).

What is called IC50 is the concentration that gives 50% inhibition.

Series [1] can be described thus: Affinity for phosphatidyl serine (EIA, inhibition of human Factor VIII binding). The conditions noted are these: for IC50: class of IC50 for inhibiting human Factor VIII binding, 5% BSA. Here is the method:
The specific affinity of the peptide for phosphatidyl serine was evaluated by measuring activity of the peptide for inhibiting the binding of the human Factor VIII to phosphatidyl serine by using human Factor VIII which is known to bind to phosphatidyl serine but not to phosphatidyl choline in the presence of serum albumin. To be more specific, 100 μL of ethanol solution containing 10 μg/mL of phospholipids at a phosphatidyl serine (manufactured by SIGMA): phosphatidyl choline (manufactured by SIGMA) ratio of 3:7 was added to the wells of a 96 well plate (Immulon I, manufactured by Dynatech), and exsiccated by using a centrifugal evaporator (EC-95C, manufactured by Sakuma Seisakusho) at 40° C. for 40 minutes. 200 μL each of TBS (10 mM Tris-HCl (pH 7.4) containing 1% bovine serum albumin (BSA Fraction V, hereinafter referred to as BSA, manufactured by Seikagaku Corporation) and 0.9% (W/V) NaCl solution were added to each well, and the wells were blocked by allowing the plate to stand at 37° C. for 2.5 hours. After washing the plate with water, 100 μL of TBS solution supplemented with 5% BSA mixed with human Factor VIII (manufactured by American Diagnostica) at a final concentration 1 μg/mL and the peptide of predetermined dose prepared in Example 1 was added to each well, and the reaction was allowed to take place at 4° C. for 24 hours.
After the completion of the reaction, the human Factor VIII that became bound to the phosphatidyl serine was measured by enzyme immunoassay (EIA) in accordance with the general procedure described in a book (“Enzyme Immunoassay (3rd ed.)”, Eiji Ishikawa et al., Igaku-Shoin, 1987). To be more specific, the measurement was conducted by using anti-human Factor VIII mouse monoclonal antibody (ESH8, manufactured by American Diagnostica) for the primary antibody, horseradish peroxidase-labeled anti-mouse IgG antibody (P0260, manufactured by Daco) for the secondary antibody, and tetramethylbenzidine for the chromogenic substrate, and measuring the absorption at a wavelength of 450 nm by using a reference wavelength of 630 nm on a spectrophotometer (NJ-2100, manufactured by Intermed).
Intensity of the affinity of the peptide for the phosphatidyl serine was evaluated by using the value obtained by subtracting the absorption of the well having no human Factor VIII added thereto from the absorption of the well having only the human Factor VIII added thereto as the control value (100%), and designating the peptide concentration at which the value 0.5 was obtained when the value obtained by subtracting the absorption of the well having only the peptide added thereto from the absorption of the well having a mixture of the human Factor VIII and the peptide added thereto were divided by the control value as the IC50 value, and evaluating the intensity to be ++ when the IC50 value was up to 1 μM, and +when the intensity was more than 1 μM but not more than 10 μM. It is to be noted that the specific affinity was evaluated to be none when the intensity was 10 μM or more.

Series [2] can be described thus: Measurement of turbidity in BSA. It is filed as physicochemical. The conditions noted are these: BSA 1%, peptide 50 μM, absorbance at 600 nm. Here is the method: The solutions were evaluated for their absorbance at a wavelength of 600 nm by using a spectrophotometer (DU640, manufactured by Beckman).
Series [3] deals with cell (Vero, T24 or A549 of Example 9; not given). The experiment in a line: Nucleic acid-introducing ability, luciferase-expressing plasmid (procedure of Example 9). It is filed as cell-based. As to conditions: for Nucleic acid-introducing ability: class of fluorescent count per 1 mg of protein per 1 second, highest of peptide 1.25, 2.5, 5 μM, plasmid 1 μg/mL. From the text:
A cell line established from monkey kidney (Vero cell) and a human bladder cancer cell (T24 cell) purchased from American Type Culture Collection (ATCC) and human lung cancer cell (A549 cell) purchased from Dainippon Pharmaceutical were inoculated on a 24 well culture plate (manufactured by NALGEN NUNC) at 1×10^5 cells/well. Vero cell and A549 cell were cultivated in DMEM (manufactured by Life Technologies Oriental) supplemented with 10% fetal bovine serum (hereinafter referred to as FBS, manufactured by NICHIREI), and T24 cell was cultivated in McCoy's 5a (manufactured by Life Technologies Oriental) supplemented with 10% FBS in 5% CO2 atmosphere at 37° C. for 24 hours. After removing the medium, opti-MEM (manufactured by Life Technologies Oriental) prepared to have the concentration of the luciferase-expressing plasmid prepared in Example 7 of 1 μg/mL and the concentration of the peptide prepared in Example 1 of 1.25, 2.5, or 5 μM was added, and the cells were cultivated for 5 hours. Next, in the case of Vero cell and A549 cell, the culture medium was replaced with DMEM supplemented with 10% FBS, and in the case of T24 cell, the medium was replaced with McCoy's 5a supplemented with 10% FBS, and cultivation was continued in 5% CO2 atmosphere and at 37° C. for another 24 hours. The luciferase activity expressed in the cell was then measured by the method instructed in luciferase assay system (manufactured by Promega). To be more specific, the cells were washed with phosphate-buffered saline (hereinafter referred to as PBS, manufactured by SIGMA), and the cells were lyzed with Passive Lysis Buffer attached to the kit. 20 μL of this cell lysate and 100 μL of the Luciferase Assay Reagent II attached to the kit was added to a fluorescence-measuring plate (Microlite™ 1 plate, manufactured by Dynatech), and after mixing, fluorescence was measured for 1 second by using a multilabel counter (ARVO™ SY1420 MULTILABEL COUNTER, manufactured by Wallac Beltold.
Concentration of the protein in the cell lysate was measured by mixing 8 μL of the cell lysate and 200 μL of the protein assay solution (manufactured by Biorad) with 792 μL of ultrapure water in a disposable cuvette (UV fluorescent cuvette A204X, manufactured by Funakoshi), allowing the mixture to stand for 5 minutes at room temperature, and measuring the absorption at 595 nm with a spectrophotometer (DU640, manufactured by Beckman). Bovine serum albumin (BSA) was used for the standard protein. By using the thus obtained results, count per 1 second per 1 mg of protein of the cell lysate was calculated to thereby use the count as the luciferase activity, and the highest count in the three conditions of different peptide concentration was designated the gene-introducing ability of the peptide.
It is to be noted that the nucleic acid-introducing ability was classified as described below on the bases of the fluorescent count per 1 mg of protein per 1 second (cps/mg protein).

Consider Polylysine [reference compound], for which the “affinity for phosphatidyl serine” value in series [1] (procedure of Example 20) is on record as “no affinity for phosphatidyl serine”. The “OD 600” value in series [2] is at least 1.

In series [1], “SEQ ID NO: 2: peptide of SEQ ID NO:1 with one or two locations substituted in the 18 amino acid sequence (TRYLRIHPRSWVRQIALRLRYLRIHPRSWVRQIALRS; synthetic peptide using an automatic peptide synthesizer)” showed an IC50 of under 1000 nM. In series [2], the “OD 600” value is listed as 0.01>. The Nucleic acid-introducing ability in series [3] was 3+ (1,000,000 to less than 10,000,000).

“SEQ ID NO: 3: peptide of SEQ ID NO:1 with one or two locations substituted in the 18 amino acid sequence (TRYLRIHPRSWVHQIRLRLRYLRIHPRSWVHQIRLRS; synthetic peptide using an automatic peptide synthesizer)” came in with a half-maximal inhibitory concentration (IC50) in series [1] of under 1000 nM. Moreover, the “OD 600” value in series [2] was 0.01>. Further, the Nucleic acid-introducing ability in series [3] was 2+ (100,000 to less than 1,000,000).

Take “SEQ ID NO: 5: peptide of SEQ ID NO:1 with one or two locations substituted in the 18 amino acid sequence (TRFLRIHPRSWVHQIALRLRFLRIHPRSWVHQIALRS; synthetic peptide using an automatic peptide synthesizer)”: in series [1], the concentration for half-maximal inhibition (IC50) is under 1000 nM. In series [2], the “OD 600” value was 0.01>. The Nucleic acid-introducing ability in series [3] was 2+ (100,000 to less than 1,000,000).

In turn, “SEQ ID NO: 6: peptide of SEQ ID NO:1 with one or two locations substituted in the 18 amino acid sequence (TRYLRIHPRSWVHNIALRLRYLRIHPRSWVHNIALRS; synthetic peptide using an automatic peptide synthesizer)” came in with a half-inhibitory concentration (IC50) in series [1] of under 1000 nM. In addition, in series [2], the “OD 600” value is reported as 0.01>. Besides, the Nucleic acid-introducing ability in series [3] is 2+ (100,000 to less than 1,000,000).

“SEQ ID NO: 7: peptide of SEQ ID NO:1 with one or two locations substituted in the 18 amino acid sequence (TRYLRIHPRSWVHQIALKLKYLRIHPRSWVHQIALRS; synthetic peptide using an automatic peptide synthesizer)” returned an IC50 in series [1] of 1000 to 10000 nM. Also, the “OD 600” value in series [2] is on record as 0.01>. Also, the Nucleic acid-introducing ability in series [3] is reported as 2+ (100,000 to less than 1,000,000).

As to “SEQ ID NO: 8: peptide of SEQ ID NO:1 with one or two locations substituted in the 18 amino acid sequence (TRYLRIHPKSWVHQIALRLRYLKIHPRSWVHQIALRS; synthetic peptide using an automatic peptide synthesizer)”, the concentration for half-maximal inhibition (IC50) in series [1] fell in the range of 1000 to 10000 nM. In series [2], the “OD 600” value is recorded as 0.01>. Also, the Nucleic acid-introducing ability in series [3] is 3+ (1,000,000 to less than 10,000,000).

“SEQ ID NO: 10: peptide of SEQ ID NO:1 with one or two locations substituted in the 18 amino acid sequence (TRSLRIHPRSWVHQIALRLRSLRIHPRSWVHQIALRS; synthetic peptide using an automatic peptide synthesizer)”: the IC50 in series [1] lay in the range of 1000 to 10000 nM. Also, the “OD 600” value in series [2] is 0.01>. Further, the Nucleic acid-introducing ability in series [3] is reported as 3+ (1,000,000 to less than 10,000,000).

“SEQ ID NO: 11: peptide of SEQ ID NO:1 with one or two locations substituted in the 18 amino acid sequence (TRYLRIHPRLWVHQIALRLRYLRIHPRLWVHQIALRS; synthetic peptide using an automatic peptide synthesizer)” displayed a concentration for half-maximal inhibition (IC50) in series [1] of 1000 to 10000 nM. Moreover, in series [2], the “OD 600” value is recorded as 0.01>. Further, the Nucleic acid-introducing ability in series [3] is recorded as 3+ (1,000,000 to less than 10,000,000).

In turn, “SEQ ID NO: 15: peptide of SEQ ID NO:1 with one or two locations substituted in the 18 amino acid sequence (TRYLRIRPRSWVRQIALRLRYLRIRPRSWVRQIALRS; synthetic peptide using an automatic peptide synthesizer)” had a half-maximal inhibitory concentration (IC50) in series [1] of under 1000 nM. Further, the “OD 600” value in series [2] was 0.01>. For the same substance, the Nucleic acid-introducing ability in series [3] is 2+ (100,000 to less than 1,000,000).

The substance “SEQ ID NO: 17: peptide of SEQ ID NO:1 with one or two locations substituted in the 18 amino acid sequence (TRSLRIHPRLWVHQIALRLRSLRIHPRLWVHQIALRS; synthetic peptide using an automatic peptide synthesizer)” had an IC50 in series [1] of under 1000 nM. For the same substance, the “OD 600” value in series [2] is 0.01>. Also, the Nucleic acid-introducing ability in series [3] is reported as 2+ (100,000 to less than 1,000,000).

In series [1], “SEQ ID NO: 19: peptide of SEQ ID NO:1 with three locations substituted in the 18 amino acid sequence; preferred peptide (TRYLRLHPRSWLHQLALRLRYLRLHPRSWLHQLALRS; synthetic peptide using an automatic peptide synthesizer)” returned an IC50 of under 1000 nM. The “OD 600” value in series [2] is given as 0.01>. Besides, the Nucleic acid-introducing ability in series [3] is given as 4+ (10,000,000 or more).

Take “SEQ ID NO: 23: deletion mutant of the peptide of SEQ ID NO:1 (TIHPRSWVHQIALRLRYLRIHPRSWVHQIAS; synthetic peptide using an automatic peptide synthesizer)”: the IC50 in series [1] is under 1000 nM. The “OD 600” value in series [2] is 0.01>. Moreover, the Nucleic acid-introducing ability in series [3] is recorded as 2+ (100,000 to less than 1,000,000). Further, the “ability of introducing the nucleic acid into a cell” value in series [3] (procedure of Example 9, luciferase-expressing plasmid) is “had the ability of introducing the nucleic acid into a cell”.
